Where two headings read alike, the source gives them in different places. Marks after values point to notes of the source that are not given here.
Assays:
[1] = tested on: sweat gland epithelial cells at the rat toe part; assay: Sweat secretion of rat paw part (tissue morphology observation method); type: in vivo, Wistar rats; details: for Number of sweat glands of vacuole / Void fraction (%): rat toe part
Source text: This test was based on the mechanism that when rat sweat gland is excited, in addition to sweat secretion increase, the morphology of sweat gland epithelial cell is also changed. The number increase and expansion of empty cells of the sweat gland epithelial cells can be seen under the optical microscope. Such enlarged vacuole presents mitochondrial in sweat gland epithelial cells swelling, rupture, fusion and secretory vesicle enlargement under the electron microscope, and through the morphological observation of the sweat gland epithelial cell at the rat paw part, the secretory activity of the sweat gland can be known. In the test, 70 Wistar rats were selected, with equal male and female number, weighing 120-160 g. […] Besides that subcutaneous injection was used for the pilocarpine solution, intragastric administration was used for all the other groups.

[2] = tested on: parainfluenza virus; type: in vivo, Kunming mice; details: for Lung index (X ± S) / Lung index Inhibitive rate (%): parainfluenza virus infected mice, 5 days
[3] = tested on: sweat secretion of rat paw part; assay: Sweat secretion of rat paw part (coloring method); type: in vivo, Wistar rats; details: for Animal number of sweat points of level +: + = sweat area below about 10%; for Animal number of sweat points of level ++: ++ = sweat area about 11-40%; for Animal number of sweat points of level +++: +++ = sweat area about 41-70%; for Animal number of sweat points of level ++++: ++++ = sweat area over 71%; for Animal number of sweat points of level −: − = no sweat point
Source text: This test was designed to observe the change of sweat secretion based on the mechanism that sweat gland is distributed on the rat paw pads, and iodine and starch can have purple reaction when encountered with sweat. In the test, 350 Wistar rats were selected, with equal male and female number, weighing 120-150 g. […] The rats were placed in a self-made rat fixation bag, with the double hind limbs exposed. The dirts on the right paw was gently scrubbed clean with the cotton swab dipped with anhydrous ethanol. Besides that subcutaneous injection was used for the pilocarpine solution, intragastric administration was used for all the other groups. […] When the test was complete, statistical process was carried out according to the rank-sum test with two-sample comparison, in order to compare the difference between the groups.

[4] = Solubility; type: physicochemical
[5] = tested on: influenza and parainfluenza virus induced pneumonia; assay: Histomorphology observation of lung; type: in vivo, Kunming mice; details: high dosage and medium dosage groups, Day 5 after treatment
Protocol: On Day 5 after treatment, the lungs of mice in each group were picked, and general pathological changes of their viscera are observed by naked eyes and are recorded. The lungs were rinsed with normal saline and moisture thereon is sucked up by using filter paper, a part of the lung was fixed with 10% formaldehyde and embedded with paraffin and sliced, and the lung tissue slices were stained with HE, followed by observation and photographing under a microscope.

[6] = tested on: parainfluenza virus; type: in vivo, Kunming mice; details: mouse, in vivo
[7] = tested on: Coxsackie virus A16 (CoxA16); assay: Impact of the drugs on the virus-induced cytopathy (MTT); type: cell-based; details: CoxA16 100 TCID50, Vero cells, about the maximal non-cytotoxic concentration, 72 hours
[8] = tested on: influenza virus; type: in vivo, Kunming mice; details: lung suspensions, influenza virus infected mice, 5 days
[9] = tested on: coxsackie virus B3 (CVB3); assay: Impact of the drugs on the virus-induced cytopathy (MTT); type: cell-based; details: CVB3 100 TCID50, Vero cells, about the maximal non-cytotoxic concentration, 72 hours
[10] = tested on: Vero cell; assay: Cytotoxicity test on Vero cell (MTT); details: 72 hours
[11] = tested on: mice pain induced by acetic acid; assay: Analgesic test, mice writhing induced by acetic acid; type: in vivo, Kunming mice; details: for Writhing times: within 15 min after 0.7% acetic acid
Protocol: 72 Kunming mice were randomly divided into 6 groups, with 12 mice for each group. (1) the blank normal control group (i.e. saline group, […]); (2) positive drug aspirin group (200 mg/kg); (3) ibuprofen group (300 mg/kg); (4) high dose group of phillygenin ibuprofen ester (300 mg/kg); (5) medium dose group of phillygenin ibuprofen ester (150 mg/kg); (6) low dose group of phillygenin ibuprofen ester (75 mg/kg). […] The number of mice writhings within 15 min after administration was recorded. The number of writhings was taken as the evaluation index to evaluate the analgesic effect.

[12] = tested on: influenza virus; type: in vivo, Kunming mice; details: for Lung index (X ± S) / Lung index Inhibitive rate (%): influenza virus infected mice, 5 days
[13] = after coating B liquid for 1 minute, 2.5 mg/kg intragastric
[14] = after coating B liquid for 1 minute, 5.0 mg/kg intragastric
[15] = after coating B liquid for 1 minute, 10.0 mg/kg intragastric
[16] = after coating B liquid for 5 minutes, 2.5 mg/kg intragastric
[17] = after coating B liquid for 5 minutes, 5.0 mg/kg intragastric
[18] = after coating B liquid for 5 minutes, 10.0 mg/kg intragastric
[19] = after coating B liquid for 10 minutes, 2.5 mg/kg intragastric
[20] = after coating B liquid for 10 minutes, 5.0 mg/kg intragastric
[21] = after coating B liquid for 10 minutes, 10.0 mg/kg intragastric
[22] = after coating B liquid for 15 minutes (Table 2-4), 2.5 mg/kg intragastric
[23] = after coating B liquid for 15 minutes (Table 2-4), 5.0 mg/kg intragastric
[24] = after coating B liquid for 15 minutes (Table 2-4), 10.0 mg/kg intragastric
[25] = after coating B liquid for 15 minutes (Table 2-5), 2.5 mg/kg intragastric
[26] = after coating B liquid for 15 minutes (Table 2-5), 5.0 mg/kg intragastric
[27] = after coating B liquid for 15 minutes (Table 2-5), 10.0 mg/kg intragastric

Question: Which results are given for `COc1ccc([C@H]2OCC3C2CO[C@H]3c2ccc(OC)c(OC(=O)C(C)c3ccc(CC(C)C)cc3)c2)cc1OC` (some centres unmarked) [Phillygenin ibuprofen ester, phillygenin ibuprofen ester]?
Answer: effect on the sweat secretion of the rat toe part vs control group ([1]; 5 and 10 mg/kg, p<0.01 or p<0.001): obvious promoting effect; Number of sweat glands of vacuole ([1]; 2.5 mg/kg intragastric): 20; Void fraction (%) ([1]; 2.5 mg/kg intragastric): 8.47%; Number of sweat glands of vacuole ([1]; 5.0 mg/kg intragastric): 42; Void fraction (%) ([1]; 5.0 mg/kg intragastric): 32.11***; ^# %; Number of sweat glands of vacuole ([1]; 10.0 mg/kg intragastric): 75; Void fraction (%) ([1]; 10.0 mg/kg intragastric): 35.21***; ^## %; effect on average lung index vs infection model group ([2]; mouse, in vivo): certain protective effect; Lung index (X ± S) ([2]; 3.25 mg/kg/d intragastric): 1.320 ± 0.053; Lung index Inhibitive rate (%) ([2]; 3.25 mg/kg/d intragastric): 17.01%; Lung index (X ± S) ([2]; 13.0 mg/kg/d intragastric): 1.237 ± 0.070; Lung index Inhibitive rate (%) ([2]; 13.0 mg/kg/d intragastric): 22.25%; effect on the sweat secretion of rat paw part vs control group ([3]; 10 mg/kg, after coating B liquid for 5, 10, 15 and 20 min, P<0.05): obvious promoting effect; Animal number of sweat points of level + [3, 13]: 2; Animal number of sweat points of level ++ [3, 13]: 3; Animal number of sweat points of level +++ [3, 13]: 3; Animal number of sweat points of level ++++ [3, 13]: 2; Animal number of sweat points of level − [3, 13]: 0; Animal number of sweat points of level + [3, 14]: 1; Animal number of sweat points of level ++ [3, 14]: 2; Animal number of sweat points of level +++ [3, 14]: 3; Animal number of sweat points of level ++++ [3, 14]: 4; Animal number of sweat points of level − [3, 14]: 0; Animal number of sweat points of level + [3, 15]: 1; Animal number of sweat points of level ++ [3, 15]: 3; Animal number of sweat points of level +++ [3, 15]: 1; Animal number of sweat points of level ++++ [3, 15]: 5; Animal number of sweat points of level − [3, 15]: 0; Animal number of sweat points of level + [3, 16]: 1; Animal number of sweat points of level ++ [3, 16]: 3; Animal number of sweat points of level +++ [3, 16]: 3; Animal number of sweat points of level ++++ [3, 16]: 3; Animal number of sweat points of level − [3, 16]: 0; Animal number of sweat points of level + [3, 17]: 1; Animal number of sweat points of level ++ [3, 17]: 4; Animal number of sweat points of level +++ [3, 17]: 1; Animal number of sweat points of level ++++ [3, 17]: 5; Animal number of sweat points of level − [3, 17]: 0; Animal number of sweat points of level + [3, 18]: 0; Animal number of sweat points of level ++ [3, 18]: 3; Animal number of sweat points of level +++ [3, 18]: 2; Animal number of sweat points of level ++++ [3, 18]: 5; Animal number of sweat points of level − [3, 18]: 0; Animal number of sweat points of level + [3, 19]: 1; Animal number of sweat points of level ++ [3, 19]: 2; Animal number of sweat points of level +++ [3, 19]: 3; Animal number of sweat points of level ++++ [3, 19]: 4; Animal number of sweat points of level − [3, 19]: 0; Animal number of sweat points of level + [3, 20]: 0; Animal number of sweat points of level ++ [3, 20]: 3; Animal number of sweat points of level +++ [3, 20]: 2; Animal number of sweat points of level ++++ [3, 20]: 5; Animal number of sweat points of level − [3, 20]: 0; Animal number of sweat points of level + [3, 21]: 0; Animal number of sweat points of level ++ [3, 21]: 2; Animal number of sweat points of level +++ [3, 21]: 3; Animal number of sweat points of level ++++ [3, 21]: 5; Animal number of sweat points of level − [3, 21]: 0; Animal number of sweat points of level + [3, 22]: 1; Animal number of sweat points of level ++ [3, 22]: 3; Animal number of sweat points of level +++ [3, 22]: 1; Animal number of sweat points of level ++++ [3, 22]: 5; Animal number of sweat points of level − [3, 22]: 0; Animal number of sweat points of level + [3, 23]: 0; Animal number of sweat points of level ++ [3, 23]: 2; Animal number of sweat points of level +++ [3, 23]: 3; Animal number of sweat points of level ++++ [3, 23]: 5; Animal number of sweat points of level − [3, 23]: 0; Animal number of sweat points of level + [3, 24]: 0; Animal number of sweat points of level ++ [3, 24]: 1; Animal number of sweat points of level +++ [3, 24]: 4; Animal number of sweat points of level ++++ [3, 24]: 5; Animal number of sweat points of level − [3, 24]: 0; Animal number of sweat points of level + [3, 25]: 0; Animal number of sweat points of level ++ [3, 25]: 2; Animal number of sweat points of level +++ [3, 25]: 3; Animal number of sweat points of level ++++ [3, 25]: 5; Animal number of sweat points of level − [3, 25]: 0; Animal number of sweat points of level + [3, 26]: 0; Animal number of sweat points of level ++ [3, 26]: 1; Animal number of sweat points of level +++ [3, 26]: 4; Animal number of sweat points of level ++++ [3, 26]: 5; Animal number of sweat points of level − [3, 26]: 0; Animal number of sweat points of level + [3, 27]: 0; Animal number of sweat points of level ++ [3, 27]: 0; Animal number of sweat points of level +++ [3, 27]: 5; Animal number of sweat points of level ++++ [3, 27]: 5; Animal number of sweat points of level − [3, 27]: 0; solubility [4]: soluble in methanol; chloroform, and dichloromethane; lung lesions of mice (lung histology, HE) [5]: significantly alleviated; Hemagglutination titer (InX) ([6]; 3.25 mg/kg/day): 21.55 ± 0.857; Hemagglutination titer Inhibitive rate (%) ([6]; 3.25 mg/kg/day): 34.90%; Hemagglutination titer (InX) ([6]; 13 mg/kg/day): 19.75 ± 0.902; Hemagglutination titer Inhibitive rate (%) ([6]; 13 mg/kg/day): 40.34%; antiviral effective rate (ER %) [7]: 75.89**^## %; Hemagglutination titer (InX) ([8]; 3.25 mg/kg/d): 22.01 ± 1.420; Hemagglutination titer Inhibitive rate (%) ([8]; 3.25 mg/kg/d): 32.07%; Hemagglutination titer (InX) ([8]; 13.0 mg/kg/d): 19.32 ± 0.624; Hemagglutination titer Inhibitive rate (%) ([8]; 13.0 mg/kg/d): 40.36%; antiviral effective rate (ER %) [9]: 75.83**^## %; Median toxic concentration (TC50) [10]: 485 µg/mL; maximal non-toxic concentration (TC0) [10]: 0.109 g/L; Writhing times ([11]; 75 mg/kg intragastric): 15.8*; Writhing times ([11]; 150 mg/kg intragastric): 6.5*; Writhing times ([11]; 300 mg/kg intragastric): 3.9*^#; effect on mice pain induced by acetic acid vs blank control group ([11]; low, medium and high dose groups (75, 150, 300 mg/kg), P<0.01): had analgesic effect; Lung index (X ± S) ([12]; 4.0 mg/kg/d intragastric): 1.222 ± 0.040; Lung index Inhibitive rate (%) ([12]; 4.0 mg/kg/d intragastric): 17.90%; Lung index (X ± S) ([12]; 8.0 mg/kg/d intragastric): 1.190 ± 0.061; Lung index Inhibitive rate (%) ([12]; 8.0 mg/kg/d intragastric): 20.05%; Lung index (X ± S) ([12]; 13.0 mg/kg/d intragastric): 1.147 ± 0.048; Lung index Inhibitive rate (%) ([12]; 13.0 mg/kg/d intragastric): 22.94%; effect on average lung index vs infection model group ([12]; mouse, in vivo): certain protective effect

From patent US9963461B2, “Phillygenin ibuprofen ester, preparation method therefor, and application thereof” (priority 2014, dated 2018)
